The source of these data is patent US20090306053A1, “Highly selective rho-kinase inhibitor” (priority 2005, published 2009).

Where only a bound is given, the exact number is not on record here.

Common to all, as to type: biochemical
One test deals with T1, Purified chicken MLCK (Gallus gallus, UniProt P11799).
T1 construct: from tissue
Description: MLCK kinase assay (Kinase-Glo ATP consumption). As to conditions: 1 μM ATP; read-out: Kinase Inhibiting Activity (IC50) MLCK. Here is the method:
Purified chicken MLCK (purified by the method of M. Anne Conti, et al.: Method in Enzymol. 196, 34-47) was used to evaluate its activity to phosphorylate a substrate peptide (AKRPQRATSNVFS, Sigma).
(§1) In a system of the total volume of 50 μL, the reaction of the above-mentioned enzyme (100 ng) was carried out at room temperature for 80 minutes in the presence of 20 mM of Tris-HCl (pH 7.5), 5 mM of magnesium chloride, 0.2 mM of calcium chloride, 0.02 mg/mL of BSA, 8 μg/mL of purified bovine brain calmodulin (Sigma), 50 μM of the above peptide, and 1 μM of ATP. After the kinase reaction, the luminescence intensity corresponding to the amount of ATP in the reaction system was measured using a luciferase reagent (Kinase-Glo Luminescent Kinase Assay kit, Promega) with a chemiluminescence measurement apparatus (MicroLumat, Berthold Technologies). The amount of ATP consumed by the phosphorylation reaction was calculated by comparison with the luminescence intensity in the system when the kinase reaction was not carried out.
(§2) With this system, the kinase reaction was carried out in the presence of a compound at various concentrations, and the IC50 value of the compound was determined based on the resulting compound concentration-response curve for ATP consumption.
(Kinase-Glo measures the ATP left after a reaction by luminescence.)

Another test concerns the target T2, Recombinant mouse MKK4 (Mus musculus, UniProt P47809).
T2 construct: from 34th to 397th amino acids; purchased Upstate
T2 sequence (P47809 34-397): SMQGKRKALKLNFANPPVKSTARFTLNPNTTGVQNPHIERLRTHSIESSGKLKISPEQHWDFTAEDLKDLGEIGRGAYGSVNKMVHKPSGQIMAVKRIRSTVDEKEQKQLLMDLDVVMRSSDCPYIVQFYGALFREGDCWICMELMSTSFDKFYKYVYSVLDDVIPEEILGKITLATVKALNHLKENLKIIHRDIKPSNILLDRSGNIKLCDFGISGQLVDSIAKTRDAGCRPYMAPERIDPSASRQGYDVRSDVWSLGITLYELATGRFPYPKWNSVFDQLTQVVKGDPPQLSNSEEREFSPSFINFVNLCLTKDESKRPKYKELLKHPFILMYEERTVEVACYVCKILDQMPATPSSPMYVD
Description: MKK4 kinase assay (Kinase-Glo ATP consumption). Particulars: 1 μM ATP; read-out: Kinase Inhibiting Activity (IC50) MKK4. Here is the method: as §1, with “enzyme (400” for “enzyme (100”, “of 25” for “of 20”, “7.5), 10” for “7.5), 5”, “chloride,” for “chloride, 0.2 mM of calcium chloride,”, “of” for “of BSA, 8 μg/mL of purified bovine brain calmodulin (Sigma), 50 μM of”, “above JNK1α1,” for “above peptide,”
as §2

Test [1] has as its target T3, Purified bovine PKA (catalyst subunit) (Bos taurus, UniProt P00517).
T3 construct: Purified bovine PKA (catalyst subunit, Promega); purchased Promega
The test can be described thus: PKA kinase assay (Kinase-Glo ATP consumption). Particulars: for IC50: 1 μM ATP, read-out: Kinase Inhibiting Activity (IC50) PKA; for Realative Inhibitory Activity PKA: relative ratio to ROCKII (=1.0), based on IC50 values. Here is the method: Purified bovine PKA (catalyst subunit, Promega) was used to evaluate its activity to phosphorylate a substrate peptide (LRRASLG, Promega).
as §1, with “enzyme (43” for “enzyme (100”, “for 20” for “for 80”, “of 40” for “of 20”, “7.5), 20” for “7.5), 5”, “chloride, 1” for “chloride, 0.2 mM of calcium chloride, 0.02”, “BSA, 5” for “BSA, 8 μg/mL of purified bovine brain calmodulin (Sigma), 50”
as §2
(§3) The ROCKII-inhibiting activity of a compound to be tested was defined as 1.0, and the inhibitory activities of the compound against kinases (PKA, PKG, CaMKII, and AuroraA) other than ROCKII were calculated as relative ratios to the ROCKII-inhibiting activity, based on the IC50 values calculated using the above-described evaluation system.

The target of another test is ROCKII (Rho-kinase) (Homo sapiens, UniProt O75116). The test can be described thus: Rho-kinase (ROCKII) assay according to Patent Document 1. As to conditions: for Realative Inhibitory Activity ROCKII: ROCKII-inhibiting activity defined as 1.0 (reference); for IC50: read-out: Kinase Inhibiting Activity (IC50) ROCKII. More on the design: key to Realative Inhibitory Activity ROCKII: relative ratio; ROCKII-inhibiting activity defined as 1.0. Here is the method: An Rho-kinase assay was carried out according to the method described in Patent Document 1, and the concentration of a compound for inhibiting Rho-kinase activity by 50% (hereinafter referred to as “IC50 value”) was calculated.
ROCKII (Rho-kinase), sequence (O75116 whole entry, species assumed): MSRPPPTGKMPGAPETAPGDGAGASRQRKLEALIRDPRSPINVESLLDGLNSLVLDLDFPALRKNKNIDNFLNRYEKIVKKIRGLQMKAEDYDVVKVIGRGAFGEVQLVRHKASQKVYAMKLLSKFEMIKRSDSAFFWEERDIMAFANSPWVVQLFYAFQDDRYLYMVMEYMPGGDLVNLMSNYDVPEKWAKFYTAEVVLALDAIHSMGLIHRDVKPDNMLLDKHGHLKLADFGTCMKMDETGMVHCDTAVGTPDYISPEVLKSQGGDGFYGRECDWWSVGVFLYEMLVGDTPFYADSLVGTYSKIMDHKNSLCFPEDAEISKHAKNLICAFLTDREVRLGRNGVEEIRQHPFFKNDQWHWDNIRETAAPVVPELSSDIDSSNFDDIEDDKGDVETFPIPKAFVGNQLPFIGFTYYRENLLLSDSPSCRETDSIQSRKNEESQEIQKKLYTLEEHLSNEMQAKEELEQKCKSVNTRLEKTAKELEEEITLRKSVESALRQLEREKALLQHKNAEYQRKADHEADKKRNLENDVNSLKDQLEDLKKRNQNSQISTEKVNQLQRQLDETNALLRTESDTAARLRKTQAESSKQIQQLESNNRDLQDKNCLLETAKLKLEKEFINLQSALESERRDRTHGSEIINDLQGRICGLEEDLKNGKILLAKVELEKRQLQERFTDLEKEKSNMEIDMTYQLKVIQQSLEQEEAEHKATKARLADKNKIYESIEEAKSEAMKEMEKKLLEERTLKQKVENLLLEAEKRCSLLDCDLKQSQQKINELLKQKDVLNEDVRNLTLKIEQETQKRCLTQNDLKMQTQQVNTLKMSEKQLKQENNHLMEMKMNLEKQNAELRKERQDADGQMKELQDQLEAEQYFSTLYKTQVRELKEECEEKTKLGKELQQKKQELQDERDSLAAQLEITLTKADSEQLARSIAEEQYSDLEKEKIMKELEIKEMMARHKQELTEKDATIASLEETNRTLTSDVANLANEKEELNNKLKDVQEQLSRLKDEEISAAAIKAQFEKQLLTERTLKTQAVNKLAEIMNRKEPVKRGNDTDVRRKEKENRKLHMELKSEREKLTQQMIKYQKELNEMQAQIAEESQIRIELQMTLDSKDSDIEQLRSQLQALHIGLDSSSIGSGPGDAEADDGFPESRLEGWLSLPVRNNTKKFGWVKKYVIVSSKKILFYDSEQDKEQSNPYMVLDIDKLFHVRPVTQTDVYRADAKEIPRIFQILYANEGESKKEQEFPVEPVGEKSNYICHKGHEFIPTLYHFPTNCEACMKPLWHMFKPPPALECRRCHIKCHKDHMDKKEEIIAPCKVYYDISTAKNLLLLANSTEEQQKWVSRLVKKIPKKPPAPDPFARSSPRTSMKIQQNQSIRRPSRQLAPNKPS
as §3

The subject of test [2] is Purified rat CaMKII. Description: CaMKII kinase assay (Kinase-Glo ATP consumption). As to conditions: relative ratio to ROCKII (=1.0), based on IC50 values. As for the experimental part:
(§4) Purified rat CaMKII (containing CaMKIIα and small amounts of β, γ, and δ isoforms, Upstate) was used to evaluate its activity to phosphorylate a substrate peptide (KKALRRQETVDAL, Upstate).
(§5) In a system of the total volume of 50 μL, the reaction of the above-mentioned enzyme (33 ng) was carried out at room temperature for 60 minutes in the presence of 50 mM of Tris-HCl (pH7.5), 10 mM of magnesium chloride, 2 mM of calcium chloride, 0.04 mg/mL of BSA, 16 μg/mL of purified bovine brain calmodulin (Sigma), 0.5 mM of DTT, 50 µM of the above peptide, and 1 μM of ATP. After the kinase reaction, the luminescence intensity corresponding to the amount of ATP in the reaction system was measured using a luciferase reagent (Kinase-Glo Luminescent Kinase Assay kit, Promega) with a chemiluminescence measurement apparatus (MicroLumat, Berthold Technologies). The amount of ATP consumed by the phosphorylation reaction was calculated by comparison with the luminescence intensity in the system when the kinase reaction was not carried out.
as §2, §3

Test [3] addresses T4, Purified rat CaMKII (Rattus norvegicus, UniProt P11275).
T4 construct: purchased Upstate
The test can be described thus: CaMKII kinase assay (Kinase-Glo ATP consumption). As to conditions: 1 μM ATP; read-out: Kinase Inhibiting Activity (IC50) CaMKII. Here is the method: as §4, §5, §2, §3

As to “2-(S)-1-(4-fluoroisoquinoline-5-sulfonyl)-4-glycyl-2-methylhomopiperazine dihydrochloride [Example 1]”, the IC50 – broadly, the concentration that gives 50% inhibition – is above 100 µM on Purified chicken MLCK; above 100 µM at Recombinant mouse MKK4; above 100 µM in test [1]; 0.0321 µM at ROCKII (Rho-kinase); 22.9 µM at Purified rat CaMKII [3]. Besides, the “Realative Inhibitory Activity PKA” value in test [1] was above 3000. Further, the “Realative Inhibitory Activity ROCKII” value at ROCKII (Rho-kinase) turned out to be 1. The “Realative Inhibitory Activity CaMKII” value in the test with Purified rat CaMKII [2] was determined as 763.
As to `CNCC(=O)N1CCCN(S(=O)(=O)c2cccc3cncc(F)c23)[C@@H](C)C1.Cl.Cl` [Example 2, 2-(S)-1-(4-fluoroisoquinoline-5-sulfonyl)-2-methyl-4-(N-methylglycyl)homopiperazine dihydrochloride], the IC50 on Purified chicken MLCK is above 100 µM; at Recombinant mouse MKK4, above 100 µM; in test [1] it was above 100 µM; at ROCKII (Rho-kinase) it was 0.029 µM; at Purified rat CaMKII [3] it was 26.7 µM. Also, the “Realative Inhibitory Activity PKA” value in test [1] is above 3000. The “Realative Inhibitory Activity ROCKII” value at ROCKII (Rho-kinase) is recorded as 1. The “Realative Inhibitory Activity CaMKII” value in the test on Purified rat CaMKII [2] was 890.
